Data on 42 compounds can be found in US9957271B2, “Substituted bicyclic aza-heterocycles and analogues as sirtuin modulators” (GlaxoSmithKline, LLC, priority 2012, dated 2018).

Where two headings read alike, the source gives them in different places. Some results are limits rather than exact numbers.

The target of this assay is T1, SIRT1 (Homo sapiens, UniProt Q96EB6).
T1 sequence (Q96EB6 1-747): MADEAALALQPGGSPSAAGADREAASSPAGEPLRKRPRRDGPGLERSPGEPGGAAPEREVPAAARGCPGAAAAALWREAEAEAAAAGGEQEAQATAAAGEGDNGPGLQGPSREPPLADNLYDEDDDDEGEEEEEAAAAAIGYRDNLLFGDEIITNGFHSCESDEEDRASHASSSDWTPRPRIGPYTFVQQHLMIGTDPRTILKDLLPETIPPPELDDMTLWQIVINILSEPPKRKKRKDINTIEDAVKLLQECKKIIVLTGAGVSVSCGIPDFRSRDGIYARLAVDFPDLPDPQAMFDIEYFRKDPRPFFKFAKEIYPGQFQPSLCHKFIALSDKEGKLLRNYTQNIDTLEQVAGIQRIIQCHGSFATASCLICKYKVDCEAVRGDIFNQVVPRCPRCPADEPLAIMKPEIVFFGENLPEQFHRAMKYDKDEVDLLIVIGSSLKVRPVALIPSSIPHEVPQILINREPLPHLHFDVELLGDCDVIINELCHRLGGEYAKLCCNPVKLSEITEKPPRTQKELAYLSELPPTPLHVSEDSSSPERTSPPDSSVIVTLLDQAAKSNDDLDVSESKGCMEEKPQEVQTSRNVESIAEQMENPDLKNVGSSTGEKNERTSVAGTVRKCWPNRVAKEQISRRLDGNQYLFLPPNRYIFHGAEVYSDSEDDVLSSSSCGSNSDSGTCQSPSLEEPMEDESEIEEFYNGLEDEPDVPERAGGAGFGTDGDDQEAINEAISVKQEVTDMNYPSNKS
Nature of the assay: TAMRA based mass spectrometry assay of SIRT1 activity. Type of assay: biochemical. The settings on record: for TAMRA EC1.5 (μM) / TAMRA EC1.5: concentration giving 150% activation of SIRT1; for Emax: percent maximum fold activation, read-out: TAMRA % Fold Act. Summed up:
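Recombinant N-terminal His-tagged human SIRT1 (10 nM, E. coli) incubated 25 min at 25 °C with 0.5 μM 5TMR-labelled p53-derived acetyl-peptide and 120 μM βNAD+ in Tris-acetate pH 8 buffer with DTT and 0.05% BSA, compound at varying concentrations. Stopped with formic acid; deacetylated peptide or OAADPR measured by mass spectrometry relative to DMSO controls.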

`Cc1nc2ccc(-c3ccccc3Cl)nn2c1NC(=O)c1cccc(N2CCC2)n1` [Compound 356]: where the note is “TAMRA assay”, the “TAMRA EC1.5 (μM)” value is recorded as “A (EC1.5<1 μM)” and the Emax is less than 350%.

With `O=C(Nc1ccncc1F)c1cnc2ccc(-c3ccccc3OC(F)(F)F)nn12` [Compound 359], for the setting “TAMRA assay”, the “TAMRA EC1.5 (μM)” value is “B (EC1.5 1-25 μM)” and the Emax is not below 350%.

Turning to `Cc1cc(NC(=O)c2cnc3c(C)c(C)c(-c4ccccc4C(F)(F)F)nn23)cc(C)n1` [Compound 361], where the note is “TAMRA assay”, the “TAMRA EC1.5 (μM)” value is “A (EC1.5<1 μM)” and the Emax is not below 350%.

With `O=C(Nc1cnccn1)c1cnc2ccc(-c3ccccc3OC(F)(F)F)nn12` [Compound 362], under “TAMRA assay”, the “TAMRA EC1.5 (μM)” value is “A (EC1.5<1 μM)” and the Emax was not below 350%.

On to `Cc1cc(C)nc(NC(=O)c2c(O)nc3ccc(-c4ccccc4C(F)(F)F)nn23)c1` [Compound 365], for which, for the setting “TAMRA assay”, the “TAMRA EC1.5 (μM)” value is given as “B (EC1.5 1-25 μM)” and the Emax was less than 350%.

Regarding `Cc1cc(NC(=O)c2c(O)nc3ccc(-c4ccccc4C(F)(F)F)nn23)ccn1` [Compound 366], for the setting “TAMRA assay”, the “TAMRA EC1.5 (μM)” value is recorded as “B (EC1.5 1-25 μM)” and the Emax is less than 350%.

Consider `O=C(Nc1cccc(N2CCOCC2)n1)c1cnc2ccc(-c3ccccc3OCC(O)CO)nn12` (stereo not drawn) [Compound 367, 6-(2-(2,3-dihydroxypropoxy)phenyl)-N-(6-morpholinopyridin-2-yl)imidazo[1,2-b]pyridazine-3-carboxamide], for which, where the note is “TAMRA assay”, the “TAMRA EC1.5 (μM)” value is recorded as “A (EC1.5<1 μM)” and the Emax is not below 350%.

Consider `O=C(Nc1ccccn1)c1cnc2ccc(-c3ccccc3OCC(O)CO)nn12` (stereo not drawn) [Compound 368], for which, where the note is “TAMRA assay”, the “TAMRA EC1.5 (μM)” value is reported as “B (EC1.5 1-25 μM)” and the Emax was not below 350%.

Consider `Cc1cc(NC(=O)c2cnc3ccc(-c4ccccc4OCC(O)CO)nn23)ccn1` (stereo not drawn) [Compound 370], for which, for the setting “TAMRA assay”, the “TAMRA EC1.5 (μM)” value is given as “B (EC1.5 1-25 μM)” and the Emax is not below 350%.

Take `Cc1cc(C)nc(NC(=O)c2cnc3ccc(-c4ccccc4OCC(O)CO)nn23)c1` (stereo not drawn) [Compound 371]: where the note is “TAMRA assay”, the “TAMRA EC1.5 (μM)” value is listed as “A (EC1.5<1 μM)” and the Emax was not below 350%.

For `O=C(Nc1ccccn1)c1cnc2ccc(-c3cccc(OCC(O)CO)c3)nn12` (stereo not drawn) [Compound 373], for the setting “TAMRA assay”, the “TAMRA EC1.5 (μM)” value is “B (EC1.5 1-25 μM)” and the Emax was less than 350%.

With `Cc1cc(NC(=O)c2cnc3ccc(-c4cccc(OCC(O)CO)c4)nn23)ccn1` (stereo not drawn) [Compound 374], for the setting “TAMRA assay”, the “TAMRA EC1.5 (μM)” value was “B (EC1.5 1-25 μM)” and the Emax is less than 350%.

For `Cc1nc2ccc(-c3ccccc3C(F)(F)F)nn2c1NC(=O)c1cnccn1` [Compound 376], under “TAMRA assay”, the “TAMRA EC1.5 (μM)” value is recorded as “B (EC1.5 1-25 μM)” and the Emax was less than 350%.

As for `Cc1nc2ccc(-c3ccccc3C(F)(F)F)nn2c1NC(=O)c1ncccn1` [Compound 378], under “TAMRA assay”, the “TAMRA EC1.5 (μM)” value is given as “B (EC1.5 1-25 μM)” and the Emax was not below 350%.

Take `Cc1nc(C(=O)Nc2c(C)nc3ccc(-c4ccccc4C(F)(F)F)nn23)c(C)s1` [Compound 379]: where the note is “TAMRA assay”, the “TAMRA EC1.5 (μM)” value is given as “B (EC1.5 1-25 μM)” and the Emax was not below 350%.

Regarding `Cc1nc2ccc(-c3ccccc3C(F)(F)F)nn2c1NC(=O)c1cccc(N2CCOCC2)n1` [Compound 382], where the note is “TAMRA assay”, the “TAMRA EC1.5 (μM)” value is recorded as “A (EC1.5<1 μM)” and the Emax was not below 350%.

For the compound `Cc1nc2ccc(-c3ccccc3C(F)(F)F)nn2c1NC(=O)c1cccc(OCC(O)CO)n1` (stereo not drawn) [Compound 384], for the setting “TAMRA assay”, the “TAMRA EC1.5 (μM)” value is recorded as “B (EC1.5 1-25 μM)” and the Emax is less than 350%.

For `Cc1scnc1C(=O)Nc1cnc2c(C)c(C)c(-c3ccccc3Cl)nn12` [Compound 385], where the note is “TAMRA assay”, the “TAMRA EC1.5 (μM)” value is “A (EC1.5<1 μM)” and the Emax is not below 350%.

Consider `Cc1cc(C)nc(C(=O)Nc2cnc3c(C)c(C)c(-c4ccccc4Cl)nn23)n1` [Compound 388], for which, where the note is “TAMRA assay”, the “TAMRA EC1.5 (μM)” value is reported as “A (EC1.5<1 μM)” and the Emax is not below 350%.

Consider `O=C(Nc1cccc(CN2CC[C@@H](F)C2)n1)c1cnc2ccc(-c3ccccc3C(F)(F)F)nn12` [Compound 390], for which, for the setting “TAMRA assay”, the “TAMRA EC1.5 (μM)” value was “A (EC1.5<1 μM)” and the Emax was not below 350%.

As to `O=C(Nc1cccc(CN2CCC(F)(F)CC2)n1)c1cnc2ccc(-c3ccccc3C(F)(F)F)nn12` [Compound 391], for the setting “TAMRA assay”, the “TAMRA EC1.5 (μM)” value is reported as “A (EC1.5<1 μM)” and the Emax was not below 350%.

In the case of `Cc1ccc(C(=O)Nc2cnc3ccc(-c4ccccc4C(F)(F)F)nn23)c(C)n1` [Compound 394], for the setting “TAMRA assay”, the “TAMRA EC1.5 (μM)” value is listed as “B (EC1.5 1-25 μM)” and the Emax is less than 350%.

In the case of `Cc1ccc(NC(=O)c2cnc3ccc(-c4ccccc4OC(F)(F)F)nn23)nn1` [Compound 396], for the setting “TAMRA assay”, the “TAMRA EC1.5 (μM)” value is reported as “A (EC1.5<1 μM)” and the Emax is not below 350%.

With `Cc1cnc(NC(=O)c2cnc3ccc(-c4ccccc4OC(F)(F)F)nn23)s1` [Compound 397], where the note is “TAMRA peptide substrate”, the “TAMRA EC1.5” value is reported as “A (EC1.5<1 μM)” and the Emax was less than 350%.

Consider `Cc1cc(C)nc(NC(=O)c2cnc3ccc(-c4ccccc4OC(F)(F)F)nn23)n1` [Compound 399], for which, where the note is “TAMRA peptide substrate”, the “TAMRA EC1.5” value is “B (EC1.5 1-25 μM)” and the Emax is not below 350%.

In the case of `CC1(COc2cccc(NC(=O)c3cnc4ccc(-c5ccccc5OC(F)(F)F)nn34)n2)COC1` [Compound 400], for the setting “TAMRA peptide substrate”, the “TAMRA EC1.5” value was “A (EC1.5<1 μM)” and the Emax is not below 350%.

In the case of `Cc1c(-c2ccccc2Cl)nn2c(NC(=O)c3cccc(OCC(O)CO)n3)cnc2c1C` (stereo not drawn) [Compound 402], under “TAMRA peptide substrate”, the “TAMRA EC1.5” value was “A (EC1.5<1 μM)” and the Emax was not below 350%.

As for `Cc1scnc1C(=O)Nc1cnc2c(C)c(C)c(-c3ccccc3C(F)(F)F)nn12` [Compound 403], for the setting “TAMRA peptide substrate”, the “TAMRA EC1.5” value was “A (EC1.5<1 μM)” and the Emax was not below 350%.

For `Cc1nc2ccc(-c3ccccc3C(F)(F)F)nn2c1NC(=O)c1cscn1` [Compound 404], under “TAMRA peptide substrate”, the “TAMRA EC1.5” value is on record as “B (EC1.5 1-25 μM)” and the Emax was less than 350%.

On to `Cc1nc(C(=O)Nc2c(C)nc3ccc(-c4ccccc4C(F)(F)F)nn23)cs1` [Compound 405], for which, where the note is “TAMRA peptide substrate”, the “TAMRA EC1.5” value is reported as “B (EC1.5 1-25 μM)” and the Emax was not below 350%.

Consider `Cc1cc(-c2ccccc2C(F)(F)F)nn2c(NC(=O)c3cnccn3)cnc12` [Compound 408], for which, under “TAMRA peptide substrate”, the “TAMRA EC1.5” value is “A (EC1.5<1 μM)” and the Emax was not below 350%.

With `Cc1cc(-c2ccccc2C(F)(F)F)nn2c(NC(=O)c3ccncn3)cnc12` [Compound 409], where the note is “TAMRA peptide substrate”, the “TAMRA EC1.5” value is listed as “A (EC1.5<1 μM)” and the Emax was not below 350%.

For `Cc1cc(-c2ccccc2C(F)(F)F)nn2c(NC(=O)c3ncccn3)cnc12` [Compound 410], under “TAMRA peptide substrate”, the “TAMRA EC1.5” value was “A (EC1.5<1 μM)” and the Emax was not below 350%.

As for `Cc1cc(-c2ccccc2C(F)(F)F)nn2c(NC(=O)c3cscn3)cnc12` [Compound 411], where the note is “TAMRA peptide substrate”, the “TAMRA EC1.5” value is recorded as “A (EC1.5<1 μM)” and the Emax is not below 350%.

For `Cc1cc(-c2ccccc2C(F)(F)F)nn2c(NC(=O)c3nccs3)cnc12` [Compound 414], for the setting “TAMRA peptide substrate”, the “TAMRA EC1.5” value is “A (EC1.5<1 μM)” and the Emax was not below 350%.

Take `Cc1cccc(NC(=O)c2cnc3ccc(-c4cccc(OCC(O)CO)c4)nn23)n1` (stereo not drawn) [Compound 416]: for the setting “TAMRA peptide substrate”, the “TAMRA EC1.5” value is “A (EC1.5<1 μM)” and the Emax was not below 350%.

As to `Cc1cc(C)nc(NC(=O)c2cnc3ccc(-c4cccc(OCC(O)CO)c4)nn23)c1` (stereo not drawn) [Compound 417], under “TAMRA peptide substrate”, the “TAMRA EC1.5” value is on record as “A (EC1.5<1 μM)” and the Emax was not below 350%.

As for `Cc1cc(C)nc(C(=O)Nc2cnc3c(C)c(C)c(-c4ccccc4C(F)(F)F)nn23)n1` [Compound 420], for the setting “TAMRA peptide substrate”, the “TAMRA EC1.5” value is on record as “A (EC1.5<1 μM)” and the Emax was not below 350%.

Turning to `Cc1c(-c2ccccc2C(F)(F)F)nn2c(NC(=O)c3cccc(OCC(O)CO)n3)cnc2c1C` (stereo not drawn) [Compound 422, 6-(2,3-dihydroxypropoxy)-N-(7,8-dimethyl-6-(2-(trifluoromethyl)phenyl)imidazo[1,2-b]pyridazin-3-yl)picolinamide], where the note is “TAMRA peptide substrate”, the “TAMRA EC1.5” value is recorded as “A (EC1.5<1 μM)” and the Emax is not below 350%.

For `O=C(Nc1cccc(OC(CO)CO)n1)c1cnc2ccc(-c3ccccc3C(F)(F)F)nn12` [Compound 423, N-(6-((1,3-dihydroxypropan-2-yl)oxy)pyridin-2-yl)-6-(2-(trifluoromethyl)phenyl)imidazo[1,2-b]pyridazine-3-carboxamide], for the setting “TAMRA peptide substrate”, the “TAMRA EC1.5” value is “A (EC1.5<1 μM)” and the Emax was not below 350%.

`Cc1cc(-c2ccccc2C(F)(F)F)nn2c(NC(=O)c3cccc(N4CCC4)n3)cnc12` [Compound 426]: under “TAMRA peptide substrate”, the “TAMRA EC1.5” value was “A (EC1.5<1 μM)” and the Emax was not below 350%.

As to `Cc1cc(C)nc(NC(=O)c2c(C)nc3c(C)cc(-c4ccccc4C(F)(F)F)nn23)c1` [Compound 429], under “TAMRA peptide substrate”, the “TAMRA EC1.5” value was “A (EC1.5<1 μM)” and the Emax is not below 350%.
